{"source": "patent US8962576B2", "about": "“Compositions and method for improving endothelial function and cardiovascular health” (Natreon, Inc., priority 2012, dated 2015)", "assay_type_in_all_cases": "in vivo, human", "key": {"[1]": {"system": "Type 2 Diabetic Subjects", "assay": "Other cardiovascular pharmacodynamic parameters (AIx, SEVR, ABI, PWV, CO, SVR), study (c)", "conditions": "CAPROS 250 mg twice daily, Atorvastatin 10 mg daily, n = 20", "procedure": "The augmentation index (AIx, defined as augmented pressure divided by pulse pressure and expressed as a percentage) is thus a composite measure of the magnitude of wave reflections and arterial stiffness, which affects timing of wave reflections. Because the augmentation index is influenced by changes in heart rate (HR), it is also accordingly corrected (AIx@75). The augmentation index was measured by using a validated, commercially available system (SphygmoCor; AtCor Medical, Sydney, Australia) that employs the principle of applanation tonometry and appropriate acquisition and analysis software for noninvasive recording and analysis of the arterial pulse. […] Waveforms of radial pressure were calibrated according to sphygmomanometric systolic and diastolic pressure measured in the brachial artery because there is practically negligible pressure pulse amplification between the brachial and the radial artery.\nThe subendocardial viability index, an indicator of myocardial workload and perfusion (O2 supply vs. demand) was calculated as the ratio of the integral of diastolic pressure and time to the integral of systolic pressure and time.\nBrachial-ankle pulse wave velocity (baPWV) is also used to evaluate arterial stiffness. Pulse wave velocity is the speed at which the blood pressure pulse travels from the heart to the peripheral artery after blood rushes out during contraction. It is mainly used to evaluate stiffness of the artery wall. Pulse wave velocity increases with stiffness of the arteries. The PTT (Pulse Transit Time) of each segment is calculated from the waveform taken from each sensor. Pulse wave velocity is defined in Equation (1): […]\nBrachial Ankle Pulse Wave Velocity (baPWV), Ankle Brachial Index (ABI) and Blood Pressure (BP) were measured using an automatic waveform analyzer (model BP-203 RPE; Colin Medical Technology, Komaki, Japan). Measurements were taken with patients lying in a supine position after 5 minutes of rest in that position. Occlusion and monitoring cuffs were placed snugly around both sites of the upper and lower extremities of patients. Pressure waveforms of the brachial and tibial arteries were then recorded simultaneously by an oscillometric method. Measurement of right and left baPWV was obtained for an average of 10 seconds. The average of left and right baPWV will be used for analysis.\nRecording of cardiac output (CO) was performed using L&T Nivomon monitor (Larsen & Toubro Ltd., Mumbai, India). Noninvasive continuous cardiac output monitor with peripheral blood flow measurement option. This equipment is very useful and versatile. It calculates many cardiac parameters directly including cardiac output. It works on the features of impedance plethysmography principle and has tetrapolar configuration. The advantage is that this equipment directly calculates the cardiac output along with other parameters using the pulse wave.\nAfter screening, all the eligible subjects were randomized to receive either one of the four treatments for a duration of 12 weeks, as follows.\nThe clinical measurements and pharmacodynamic tests were performed as described above in studies (a) or (b), unless otherwise stated."}, "[2]": {"system": "Type 2 Diabetic Subjects", "assay": "Lipid profile, study (a), 12 weeks treatment", "conditions": "Sensoril or Capros 250 mg twice daily, Atorvastatin 10 mg at night, n = 10", "procedure": "Study (a) design. Patients of either sex, aged 18-75 years, fasting plasma glucose of ≧110 mg/dL, a glycosylated hemoglobin (HbA1c) between 7% and 10% and taking stable doses of anti-diabetic treatment for the past 8 weeks prior to the screening visit; and having endothelial dysfunction defined as ≦6% change in reflection index (RI) on post salbutamol challenge test were included in the study. Patients with severe uncontrolled hyperglycaemia, uncontrolled hypertension, cardiac arrhythmia, impaired hepatic or renal function, history of malignancy or stroke, smoking, chronic alcoholism, any other serious disease requiring active treatment and treatment with any other herbal supplements, were excluded from the study. Pregnant and lactating women were also excluded.\nAll the eligible subjects were randomized to receive either one of the four treatments for duration of 12 weeks. There were ten (10) subjects per group. […] Subjects were asked to revisit for follow up at 4, 8 and 12 weeks of therapy. At each visit they were evaluated for efficacy and safety. Pharmacodynamic evaluation for endothelial function was conducted at every visit. Blood samples were collected for evaluation of biomarkers before and at the end of treatment. Safety lab investigations were conducted before and at the end of the study and as and when required in case of any adverse drug reaction (ADR). Subjects were examiner and/or surveyed for the presence of ADR and the same was recorded in the case report form. Compliance was assessed by pill count method.\nAll the subjects had undergone complete physical examination, safety lab evaluations at baseline, i.e., prior to treatment, and at the end of the treatment. Samples were collected after an overnight fast of 12 hrs after the last dose of medication for determination of haemoglobin level, glycosylated hemoglobin (HbA1c), urea and creatinine levels, liver function, and lipid profile (total cholesterol, high density lipoprotein cholesterol (HDL-C), and low density lipoprotein cholesterol (LDL-C)). Plasma glucose, liver function test, blood urea, serum creatinine and HbA1c were measured using appropriate standard techniques."}, "[3]": {"system": "platelet aggregation", "assay": "Platelet aggregation with ADP, dual channel aggregometer, study (a)", "procedure": "Evaluation of Platelet Aggregation.\nThe platelet aggregation was determined by the following procedure using Wheecon chronologue dual channel platelet aggregometer (Wheecon Instruments Pvt. Ltd., Chemai, Tamilnadu, India). The percentage decrease in platelet aggregation was recorded at baseline and 3 hours post treatment. Approximately 9 ml of blood sample was collected in a 10 ml plastic test tube containing 1 ml of 3.8% Sodium Citrate from the cubital vein of the subject at baseline and after 3 hours post treatment in all the groups. The test was performed immediately within a time period of one and half hours from collection. The samples were centrifuged at 800 rpm for 15 minutes to obtain a platelet-rich plasma. A portion of the same sample was centrifuged at 2500 rpm for 10 minutes so as to get a platelet-poor plasma sample. The aggregometer was switched about 30 minutes before the test to allow the heating block to warm up to 37° C. Then the test was performed in duplicate by taking 0.5 ml of platelet-rich plasma using 5 μl of adenosine di-phosphate (ADP) solution (2 μgm/ml) in cuvettes containing magnetic stir bars. The speed of stir bars were adjusted at 1200 rpm so as to facilitate the aggregation of the platelets. The platelet-poor plasma sample was kept as reference. The readings were recorded at baseline and after treatment with ADP. The percentage aggregation at baseline and the percentage inhibition of platelet aggregation on post treatment with all the four treatments was calculated."}}, "note": "Values joined by “and” are separate entries in the source; they are usually repeats but may differ in a detail not shown here. Equal entries are not always repeated.", "data": [{"smiles": "CC(C)c1c(C(=O)Nc2ccccc2)c(-c2ccccc2)c(-c2ccc(F)cc2)n1CC[C@@H](O)C[C@@H](O)CC(=O)O", "note": "[Atorvastatin]", "values": [{"measurement": "Absolute change in ABI", "setting": "[1]; 12 weeks", "value": "0.08 ± 0.06"}, {"measurement": "Absolute change in AIx", "setting": "[1]; 12 weeks", "value": "−12.14 ± 5.44", "unit": "%"}, {"measurement": "Absolute change in CO", "setting": "[1]; 12 weeks", "value": "0.84 ± 0.43", "unit": "lt/min"}, {"measurement": "Absolute change in PWV", "setting": "[1]; 12 weeks", "value": "−175.5 ± 110.82", "unit": "cm/s"}, {"measurement": "Absolute change in SEVR", "setting": "[1]; 12 weeks", "value": "11.09 ± 6.51", "unit": "%"}, {"measurement": "Absolute change in SVR", "setting": "[1]; 12 weeks", "value": "−182.3 ± 109.61", "unit": "dyne · sec/cm^5"}, {"measurement": "ABI", "setting": "[1]; Post TT, 12 weeks", "value": "1.10 ± 0.04$"}, {"measurement": "AIx", "setting": "[1]; Post TT, 12 weeks", "value": "123.4 ± 13.4$ %"}, {"measurement": "CO", "setting": "[1]; Post TT, 12 weeks", "value": "5.15 ± 0.47$ lt/min"}, {"measurement": "PWV", "setting": "[1]; Post TT, 12 weeks", "value": "1346 ± 147.6$ cm/s"}, {"measurement": "SEVR", "setting": "[1]; Post TT, 12 weeks", "value": "146.5 ± 16.09$ %"}, {"measurement": "SVR (Systemic Vascular Resistance)", "setting": "[1]; Post TT, 12 weeks", "value": "1336.95 ± 251.3$ dyne · sec/cm^5"}, {"measurement": "ABI", "setting": "[1]; Pre TT", "value": "1.02 ± 0.07"}, {"measurement": "AIx", "setting": "[1]; Pre TT", "value": "135.5 ± 14.71", "unit": "%"}, {"measurement": "CO", "setting": "[1]; Pre TT", "value": "4.13 ± 0.65", "unit": "lt/min"}, {"measurement": "PWV", "setting": "[1]; Pre TT", "value": "1522 ± 127.7", "unit": "cm/s"}, {"measurement": "SEVR", "setting": "[1]; Pre TT", "value": "135.4 ± 19.11", "unit": "%"}, {"measurement": "SVR (Systemic Vascular Resistance)", "setting": "[1]; Pre TT", "value": "1519.25 ± 296.3", "unit": "dyne · sec/cm^5"}, {"measurement": "HDL-C", "setting": "[2]; Post treatment, 12 weeks", "value": "48.2±6.01 mg/dL and 48.2 ± 6.01$ mg/dL"}, {"measurement": "LDL-C", "setting": "[2]; Post treatment, 12 weeks", "value": "87.6 ± 19.07", "unit": "mg/dL"}, {"measurement": "Total Cholesterol", "setting": "[2]; Post treatment, 12 weeks", "value": "146 ± 24.52", "unit": "mg/dL"}, {"measurement": "Triglycerides", "setting": "[2]; Post treatment, 12 weeks", "value": "102.8 ± 40.61", "unit": "mg/dL"}, {"measurement": "HDL-C", "setting": "[2]; Pre treatment", "value": "42.77 ± 6.13", "unit": "mg/dL"}, {"measurement": "LDL-C", "setting": "[2]; Pre treatment", "value": "133.2 ± 38.09", "unit": "mg/dL"}, {"measurement": "Total Cholesterol", "setting": "[2]; Pre treatment", "value": "185.7 ± 36.38", "unit": "mg/dL"}, {"measurement": "Triglycerides", "setting": "[2]; Pre treatment", "value": "169.1 ± 67.51", "unit": "mg/dL"}, {"measurement": "% Inhibition of Platelet Aggregation", "setting": "[3]; 3 hours post treatment, ADP, n = 10", "value": 7.11, "unit": "%"}, {"measurement": "platelet aggregation", "setting": "[3]; Post treatment, 3 hours post treatment, ADP, n = 10", "value": "62.00±12.81", "unit": "%"}, {"measurement": "platelet aggregation", "setting": "[3]; Pre treatment (baseline), ADP, n = 10", "value": "66.50±11.00", "unit": "%"}, {"measurement": "reduction of ADP induced platelet aggregation", "setting": "[3]; earlier study, results in Table V", "value": "did not produce significant reduction"}]}]}
